Data reported in publication PMC9165293, “Characterization in nonhuman primates of (R)-[^18F]OF-Me-NB1 and (S)-[^18F]OF-Me-NB1 for imaging the GluN2B subunits of the NMDA receptor” (European Journal of Nuclear Medicine and Molecular Imaging, 2022).
“And” between values parts separate entries of the source, which are not always exact repeats. Identical values can stand only once. Like-named read-outs stand apart in the source and are kept apart here. One block for each molecule: values may come before it.

What was measured:
[1] = target: T1, GluN2B subunits of the NMDA receptor (Macaca mulatta, UniProt F6T8S6); assay: PET blocking studies and occupancy (Lassen) plot with (R)-[^18F]OF-Me-NB1; format: in vivo, rhesus monkeys (Macaca mulatta); conditions: for VT, cerebellum / VT, cingulate cortex / VT, frontal cortex / VT, hippocampus / VT, semiovale / VT, thalamus: MA1; for Non-displaceable volume of distribution (VND): from occupancy plot with Co101,244 0.25 mg/kg; for Receptor occupancy (occupancy plot): tracer (R)-[^18F]OF-Me-NB1
T1 construct: consistent with the pattern of GluN2B expression in the monkey brain; from tissue; host or cells: brain of living rhesus monkeys (in vivo PET)
T1 sequence (F6T8S6 29-1484): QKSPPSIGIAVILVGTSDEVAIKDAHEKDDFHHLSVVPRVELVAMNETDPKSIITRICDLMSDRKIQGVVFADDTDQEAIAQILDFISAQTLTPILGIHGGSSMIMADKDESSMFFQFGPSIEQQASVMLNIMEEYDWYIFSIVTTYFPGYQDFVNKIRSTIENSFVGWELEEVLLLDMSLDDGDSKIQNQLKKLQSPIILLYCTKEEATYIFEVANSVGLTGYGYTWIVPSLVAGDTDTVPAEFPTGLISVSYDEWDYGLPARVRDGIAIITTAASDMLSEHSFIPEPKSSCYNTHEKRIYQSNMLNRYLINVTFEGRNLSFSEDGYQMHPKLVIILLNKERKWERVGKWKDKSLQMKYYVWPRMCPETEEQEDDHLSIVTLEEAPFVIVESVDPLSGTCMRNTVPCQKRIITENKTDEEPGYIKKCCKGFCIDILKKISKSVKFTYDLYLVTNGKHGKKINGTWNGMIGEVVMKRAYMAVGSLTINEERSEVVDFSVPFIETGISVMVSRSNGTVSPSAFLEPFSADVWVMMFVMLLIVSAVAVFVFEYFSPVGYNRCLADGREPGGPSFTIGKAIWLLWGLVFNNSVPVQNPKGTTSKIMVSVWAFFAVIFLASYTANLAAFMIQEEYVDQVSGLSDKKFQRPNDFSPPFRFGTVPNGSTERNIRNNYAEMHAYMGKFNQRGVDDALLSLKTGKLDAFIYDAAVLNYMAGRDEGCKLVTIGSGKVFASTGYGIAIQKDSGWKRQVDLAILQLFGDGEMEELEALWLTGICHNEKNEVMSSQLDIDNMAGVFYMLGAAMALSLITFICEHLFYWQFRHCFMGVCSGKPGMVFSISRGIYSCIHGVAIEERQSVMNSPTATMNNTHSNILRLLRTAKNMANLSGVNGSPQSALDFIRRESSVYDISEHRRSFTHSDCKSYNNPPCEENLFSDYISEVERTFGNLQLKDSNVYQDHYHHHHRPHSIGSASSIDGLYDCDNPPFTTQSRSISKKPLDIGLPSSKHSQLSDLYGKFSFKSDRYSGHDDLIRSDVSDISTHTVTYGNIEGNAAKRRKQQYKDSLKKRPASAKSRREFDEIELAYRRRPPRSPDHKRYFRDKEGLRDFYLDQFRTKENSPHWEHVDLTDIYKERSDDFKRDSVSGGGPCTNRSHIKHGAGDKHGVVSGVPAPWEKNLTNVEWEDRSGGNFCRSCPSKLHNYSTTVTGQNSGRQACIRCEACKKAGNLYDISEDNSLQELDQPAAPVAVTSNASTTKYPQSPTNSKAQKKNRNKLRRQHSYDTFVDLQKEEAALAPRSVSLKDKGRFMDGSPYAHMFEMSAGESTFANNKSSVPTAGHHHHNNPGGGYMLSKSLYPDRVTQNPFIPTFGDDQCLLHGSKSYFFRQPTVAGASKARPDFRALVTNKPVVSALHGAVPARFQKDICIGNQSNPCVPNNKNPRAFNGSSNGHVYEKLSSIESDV
Description: (§1) A total of seven PET scans in two monkeys were acquired. Each monkey underwent one baseline scan with (R)-[^18F]OF-Me-NB1, and two blocking scans at 10 min after the injection of the GluN2B antagonist Co-101,244 (0.25 mg/kg) or the sigma-1 antagonist FTC-146 (0.027 and 0.125 mg/kg). Co-101,244 and FTC-146 were previously used by Cai et al. to determine the in vivo binding specificity and selectivity of a radiotracer from the same scaffold, [^11C]NR2B-SMe, in rodents. In addition, a baseline scan with (S)-[^18F]OF-Me-NB1 was also performed in one monkey. All procedures were approved by the Yale University Institutional Animal Care and Use Committee.
(§2) Kinetic parameters were determined by fitting the regional TACs and metabolite-corrected arterial input functions to the one-tissue compartment (1TC) and two-tissue compartment (2TC) models, as well as the multilinear analysis 1 (MA1) method with starting time of 30 min [28]. The regional volume of distribution (VT, mL/cm^3) was derived in each case.
For the blocking studies, occupancy plots were constructed using regional VT values at baseline and differences in VT between baseline and blocking scans. Percent target occupancy across the brain and non-displaceable volume of distribution (VND) was then determined from the resulting linear relationship, where the slope is the uniform receptor occupancy by the drug in the brain [29].

[2] = Measurement of lipophilicity (log D7.4), 1-octanol/PBS; format: physicochemical; conditions: 1-octanol/PBS pH 7.4; n = 4
Description: Lipophilicity (log D7.4) was measured using the method previously reported. Log D7.4 was calculated as the ratio of decay-corrected radioactivity concentrations in 1-octanol and phosphate-buffered saline (PBS, pH = 7.4, Dulbecco). Six consecutive equilibrations were performed until a constant value of log D7.4 was obtained.

[3] = Plasma free fraction (fP) by ultrafiltration; format: in vitro ADME, rhesus monkeys; conditions: monkey plasma
Description: The ultrafiltration method was used for measuring the unbound portion (free fraction) of [^18F]OF-Me-NB1 in plasma as previously described. The fP was determined as the ratio of the radioactivity concentration in the filtrate to the total activity in plasma. Measurements of fP were performed in triplicate for each scan.

[4] = target: sigma-1 receptor; conditions: cited from earlier work
[5] = target: GluN2B subunit-containing NMDARs; conditions: cited from earlier work
[6] = Plasma metabolite analysis (parent fraction over time); format: in vivo, rhesus monkeys; conditions: for Parent fraction of total plasma activity: baseline scans; for Effect of pretreatment on parent fraction of (R)-[^18F]OF-Me-NB1 in plasma: blocking scans
Description: Measurements of plasma activity and parent fraction over time were performed as previously described. Arterial or venous blood samples were collected at preselected time points and assayed for radioactivity in whole blood and plasma with cross-calibrated gamma counters (Wizard 1480/2480, Perkin Elmer, Waltham, MA, USA). The volume of the whole blood or plasma (50–200 µL) was determined by the weight of the sample. Parent fraction was calculated as the ratio of the total radioactivity in fractions containing the parent compound to the total amount of radioactivity collected and fitted with an inverted gamma function and corrected for filtration efficiency. The arterial plasma input function (AIF) was then calculated as the product of the total counts in the plasma and the interpolated parent fraction at each time point.

[7] = target: T1, GluN2B subunits of the NMDA receptor; assay: PET imaging in rhesus monkeys, baseline scans with kinetic modeling; format: in vivo, rhesus monkeys (Macaca mulatta); conditions: for BPND, cerebellum / BPND, cingulate cortex / BPND, frontal cortex / BPND, hippocampus / BPND, semiovale / BPND, thalamus: from baseline VT and VND of Co101,244 occupancy plot; for Peak uptake SUV across brain regions / Time to peak brain uptake after tracer injection: baseline scan, monkey brain; for VT, cerebellum / VT, cingulate cortex / VT, frontal cortex / VT, hippocampus / VT, semiovale / VT, thalamus: baseline, MA1
Description: as §1
(§3) Animals were sedated with a combination of alfaxalone (2 mg/kg), midazolam (0.3 mg/kg), and dexmedetomidine (0.01 mg/kg) and maintained in an anesthetized state with 1.5–2.5% isoflurane in oxygen. Heart rate, blood pressure, respiration rate, oxygen saturation, and respiration rate were monitored continuously. An arterial line was placed in the radial artery for blood sampling.
Dynamic PET data were acquired on the Focus 220 scanner (Siemens Medical Solutions, Knoxville, TN, USA). Before radiotracer injection, a 9 min transmission scan was obtained for attenuation correction. The radiotracer (10 mL) was administered intravenously as a slow bolus over 3 min. Emission data were collected in list mode for 90 or 120 min and binned into frames of increasing durations (6 × 30 s, 3 × 1 min, 2 × 2 min, and […]).
High-resolution magnetic resonance images were acquired with a Siemens 3 T Trio scanner for the region of interest (ROI) definition. PET emission data were attenuation-corrected using the transmission scan, then reconstructed using a Fourier rebinning and filtered back-projection algorithm. PET images summed from the first 10 min of each scan were registered to the anatomical MR image. Inverted transformations were applied to register an atlas ROI mask to the PET image, and time-activity curves (TACs) were extracted from each ROI: frontal, occipital, temporal, cingulate and insular cortex, caudate, putamen, globus pallidus, nucleus accumbens, amygdala, hippocampus, thalamus, pons, substantia nigra, cerebellum, and centrum semiovale.
as §2

[8] = Vital signs monitoring during PET scans; format: in vivo, rhesus monkeys; conditions: after the injections of blocking drug and tracer for the blocking scan
Description: as §3

[9] = blocking with Co 101,244 (0.25 mg/kg), M1
[10] = blocking with Co 101,244 (0.25 mg/kg), M2
[11] = blocking with FTC-146 (0.027 mg/kg), M1
[12] = blocking with FTC-146 (0.125 mg/kg), M2
[13] = M1 (male), listed as (R)–[^18F]OF–Me–NB1

- VT, cerebellum [1, 9]: 6.9 mL/cm^3
- VT, cingulate cortex [1, 9]: 8.1 mL/cm^3
- VT, frontal cortex [1, 9]: 6.8 mL/cm^3
- VT, hippocampus [1, 9]: 6.9 mL/cm^3
- VT, semiovale [1, 9]: 8.6 mL/cm^3
- VT, thalamus [1, 9]: 6.8 mL/cm^3
- VT, cerebellum [1, 10]: 7.6 mL/cm^3
- VT, cingulate cortex [1, 10]: 7.9 mL/cm^3
- VT, frontal cortex [1, 10]: 7.4 mL/cm^3
- VT, hippocampus [1, 10]: 7.3 mL/cm^3
- VT, semiovale [1, 10]: 8.0 mL/cm^3
- VT, thalamus [1, 10]: 6.8 mL/cm^3
- VT, cerebellum [1, 11]: 9.3 mL/cm^3
- VT, cingulate cortex [1, 11]: 11.6 mL/cm^3
- VT, frontal cortex [1, 11]: 9.4 mL/cm^3
- VT, hippocampus [1, 11]: 10.5 mL/cm^3
- VT, semiovale [1, 11]: 9.5 mL/cm^3
- VT, thalamus [1, 11]: 9.4 mL/cm^3
- VT, cerebellum [1, 12]: 8.7 mL/cm^3
- VT, cingulate cortex [1, 12]: 10.1 mL/cm^3
- VT, frontal cortex [1, 12]: 9.2 mL/cm^3
- VT, hippocampus [1, 12]: 9.2 mL/cm^3
- VT, semiovale [1, 12]: 8.4 mL/cm^3
- VT, thalamus [1, 12]: 8.6 mL/cm^3
- Non-displaceable volume of distribution (VND) ([1]; female monkey (monkey 2)): 6.4 mL/cm^3
- Non-displaceable volume of distribution (VND) ([1]; male monkey (monkey 1)): 6.36 mL/cm^3 and 6.4 mL/cm^3
- logD [2]: 2.85 ± 0.01
- fraction unbound [3]: 0.012 ± 0.002
- Parent fraction of total plasma activity ([6]; 30 min after tracer injection): ~ 30%
- Parent fraction of total plasma activity ([6]; 90 min after tracer injection): 20%
- BPND, cerebellum ([7]; M1 (male)): 0.4
- BPND, cingulate cortex ([7]; M1 (male)): 1.0
- BPND, frontal cortex ([7]; M1 (male)): 0.68
- BPND, hippocampus ([7]; M1 (male)): 0.73
- BPND, semiovale ([7]; M1 (male)): 0.43
- BPND, thalamus ([7]; M1 (male)): 0.48
- BPND, cerebellum [7, 13]: 0.40
- BPND, cingulate cortex [7, 13]: 1.01
- BPND, cerebellum ([7]; M2 (female)): 0.43
- BPND, cingulate cortex ([7]; M2 (female)): 0.90
- BPND, frontal cortex ([7]; M2 (female)): 0.60
- BPND, hippocampus ([7]; M2 (female)): 0.60
- BPND, semiovale ([7]; M2 (female)): 0.48
- BPND, thalamus ([7]; M2 (female)): 0.50
- Peak uptake SUV across brain regions [7]: 4.5–6.5
- Time to peak brain uptake after tracer injection [7]: ≤ 20 min
- VT, cerebellum ([7]; M1): 8.9 mL/cm^3
- VT, cingulate cortex ([7]; M1): 12.8 mL/cm^3
- VT, frontal cortex ([7]; M1): 10.7 mL/cm^3
- VT, hippocampus ([7]; M1): 11.0 mL/cm^3
- VT, semiovale ([7]; M1): 9.1 mL/cm^3
- VT, thalamus ([7]; M1): 9.4 mL/cm^3
- VT, cerebellum ([7]; M2): 9.2 mL/cm^3
- VT, cingulate cortex ([7]; M2): 12.2 mL/cm^3
- VT, frontal cortex ([7]; M2): 10.3 mL/cm^3
- VT, hippocampus ([7]; M2): 10.3 mL/cm^3
- VT, semiovale ([7]; M2): 9.5 mL/cm^3
- VT, thalamus ([7]; M2): 9.6 mL/cm^3
- BPND in most brain regions ([7]; rhesus monkeys): > 0.5
SMILES: COc1ccc2c(c1)CCN(CCCCc1ccccc1[18F])C[C@@H]2O [(R)-[^18F]OF-Me-NB1]
- Ki [4]: 100 nM
- Ki ([5]; read-out: Ki, binding affinity to GluN2B): 4 nM

- fraction unbound [3]: 0.018
- Parent fraction of total plasma activity ([6]; 30 min after tracer injection): 20% and ~ 20%
- Parent fraction of total plasma activity ([6]; 90 min after tracer injection): ~ 10%
- Peak uptake SUV across brain regions [7]: 3.0–4.5
- Time to peak brain uptake after tracer injection [7]: ≤ 15 min
SMILES: COc1ccc2c(c1)CCN(CCCCc1ccccc1[18F])C[C@H]2O [(S)-[^18F]OF-Me-NB1]

- Receptor occupancy (occupancy plot) ([1]; Co101,244 0.25 mg/kg, female monkey (monkey 2)): 68%
- Receptor occupancy (occupancy plot) ([1]; Co101,244 0.25 mg/kg, male monkey (monkey 1)): 77%
SMILES: Cc1ccc(CC2(O)CCN(CCOc3ccc(O)cc3)CC2)cc1 [Co101,244, reference compound]
- Blood pressure drop [8]: ~ 20%
- Effect of pretreatment on parent fraction of (R)-[^18F]OF-Me-NB1 in plasma [6]: appeared to accelerate the decrease in parent fraction

- Receptor occupancy (occupancy plot) ([1]; FTC-146 0.125 mg/kg, female monkey (monkey 2)): 33%
- Effect of pretreatment on parent fraction of (R)-[^18F]OF-Me-NB1 in plasma [6]: had little effect
SMILES: O=c1sc2cc(CCCF)ccc2n1CCN1CCCCCC1 [FTC-146, reference compound]
- Blood pressure drop [8]: ~ 20%

SMILES: CC(C(O)c1ccc(O)cc1)N1CCC(Cc2ccccc2)CC1 (centres unmarked) [Ifenprodil, reference compound]
- Ki ([5]; read-out: Ki, GluN2B subunit-containing NMDARs): 10 nM
